Data: ChEMBL document CHEMBL3585297, “New amide derivatives of Probenecid as selective inhibitors of carbonic anhydrase IX and XII: biological evaluation and molecular modelling studies” (Bioorg Med Chem, 2015)

Legend:
[1] = target: Carbonic anhydrase 9 (Homo sapiens, UniProt Q16790); test: Inhibition of human carbonic anhydrase 9 by stopped-flow CO2 hydrase assay
[2] = target: Carbonic anhydrase 1 (Homo sapiens, UniProt P00915); test: Inhibition of human carbonic anhydrase 1 by stopped-flow CO2 hydrase assay
[3] = target: Carbonic anhydrase 2 (Homo sapiens, UniProt P00918); test: Inhibition of human carbonic anhydrase 2 by stopped-flow CO2 hydrase assay

Carbonic anhydrase 1, sequence (P00915 whole entry): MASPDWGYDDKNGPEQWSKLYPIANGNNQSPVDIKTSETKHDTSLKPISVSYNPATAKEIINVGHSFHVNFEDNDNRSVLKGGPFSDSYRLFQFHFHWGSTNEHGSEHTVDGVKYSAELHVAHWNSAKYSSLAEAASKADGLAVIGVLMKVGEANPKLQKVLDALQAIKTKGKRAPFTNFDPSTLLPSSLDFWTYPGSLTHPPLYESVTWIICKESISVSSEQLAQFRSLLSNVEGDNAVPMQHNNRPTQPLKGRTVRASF

Row | Structure (SMILES) | Ki [1] [µM] | Ki [2] [µM] | Ki [3] [µM]
1 | CCCN(CCC)S(=O)(=O)c1ccc(C(=O)Nc2ccncc2)cc1 | 2.04 | > 10 | > 10
2 | CCCN(CCC)S(=O)(=O)c1ccc(C(=O)NCCN(CC)CC)cc1 | 0.11 | > 10 | > 10
3 | CCCN(CCC)S(=O)(=O)c1ccc(C(=O)NCCCN2CCOCC2)cc1 | 0.213 | > 10 | > 10
4 | CCCN(CCC)S(=O)(=O)c1ccc(C(=O)NCc2ccccc2)cc1 | 0.0206 | > 10 | > 10
5 | CCCN(CCC)S(=O)(=O)c1ccc(C(=O)Nc2ccccn2)cc1 | 0.199 | – | > 10
6 | CCCN(CCC)S(=O)(=O)c1ccc(C(=O)NCCN2CCCCC2)cc1 | 1.26 | > 10 | > 10
7 | CCCN(CCC)S(=O)(=O)c1ccc(C(=O)Nc2ccc([N+](=O)[O-])cc2)cc1 | 0.246 | > 10 | > 10
8 | CCCN(CCC)S(=O)(=O)c1ccc(C(=O)Nc2ccccc2C)cc1 | 0.0613 | > 10 | > 10
9 | CCCN(CCC)S(=O)(=O)c1ccc(C(=O)NC2CCCC(C)C2)cc1 (centres undefined) | 0.188 | > 10 | > 10
10 | CCCN(CCC)S(=O)(=O)c1ccc(C(=O)Nc2ccccc2Cl)cc1 | 0.0236 | > 10 | > 10
11 | CCCN(CCC)S(=O)(=O)c1ccc(C(=O)NCC)cc1 | – | > 10 | > 10
12 | CCCN(CCC)S(=O)(=O)c1ccc(C(=O)NC2CCC(C)CC2)cc1 (centres undefined) | 2.02 | > 10 | > 10
